Reference: patent publication US20050069513A1, “Amphiphilic compounds for pharmaceutical or cosmetic use” (Physica S.A.R.L., priority 2001, published 2005)

Experiment: Formation of ion pair in aqueous phase: solubility / appearance of solutions
Type: physicochemical
Conditions: acylamino acid dispersed in aqueous phase, milky white appearance
From the text: Two aqueous solutions are used. The first contains calcitonin. Due to the fact that the calcitonin is hydrophilic, the solution is clear. […] This second solution has a milky white appearance.
The obtained complex, calcitonin oleyl methyl glycine, is therefore amphiphilic.
Two aqueous solutions are used. The first contains lidocaine dispersed in the aqueous solution. […] This second solution has a milky white appearance.
The obtained complex, lidocaine oleyl glycine, is therefore amphiphilic.
A solution of NaOH in the quantity required for causing precipitation of all of the polymyxin E by deplacement of the sulphate salt is added to a solution of polymyxin E sulphate. Polymyxin E, also known as colistin, thereby goes back to its non-salified, basic structure. The resulting solution, solution B, is thus an aqueous phase with a precipitate of polymyxin E.
The polymyxin is thus resolubilized in the form of an amphiphilic complex, polymyxin E linoleyl glycine.

Row | SMILES | solubility in water
1 | CCCCCCCC/C=C\CCCCCCCCN(C)CC(=O)O [oleyl methyl glycine] | only slightly soluble in water
2 | CCCCC/C=C\C/C=C\CCCCCCCCNCC(=O)O [linoleyl glycine] | only slightly soluble in water
3 | CCCCCCCC/C=C\CCCCCCCCNCC(=O)O [oleyl glycine] | only slightly soluble in water
